Experimental data reported in paper PMC7881240, “Calmodulin regulates the olfactory performance in Drosophila melanogaster” (Scientific Reports, 2021).

How the values were obtained:
Orco [1] = target: T1, Orco (Drosophila melanogaster, UniProt Q9VNB5, K339N); test: GCaMP6f Ca2+ imaging of OSNs, concentration-response
T1 construct: OrX/OrcoK339N in olfactory sensory neurons (Orco1 null background), ex vivo antenna; with OrX

Orco [2] = target: T2, Orco (Drosophila melanogaster, UniProt Q9VNB5); test: as above
T2 construct: native OrX/OrcoWT in olfactory sensory neurons, ex vivo antenna; with OrX
T2 sequence (Q9VNB5 1-486): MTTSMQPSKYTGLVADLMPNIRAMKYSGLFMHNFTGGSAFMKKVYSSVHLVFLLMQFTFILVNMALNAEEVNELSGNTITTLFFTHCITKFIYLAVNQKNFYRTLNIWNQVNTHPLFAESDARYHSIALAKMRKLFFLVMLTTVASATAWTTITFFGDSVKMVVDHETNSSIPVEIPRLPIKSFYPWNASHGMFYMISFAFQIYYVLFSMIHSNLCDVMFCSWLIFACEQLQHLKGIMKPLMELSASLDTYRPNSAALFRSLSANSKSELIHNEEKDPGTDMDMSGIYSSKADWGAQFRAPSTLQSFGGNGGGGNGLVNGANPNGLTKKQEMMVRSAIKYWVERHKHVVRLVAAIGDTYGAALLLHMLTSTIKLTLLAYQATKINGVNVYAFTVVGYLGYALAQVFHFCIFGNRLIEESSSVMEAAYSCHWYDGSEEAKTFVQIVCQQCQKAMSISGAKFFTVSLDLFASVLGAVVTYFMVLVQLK

Or22a = target: T3, Or22a (Drosophila melanogaster, UniProt P81909); test: GCaMP6f Ca2+ imaging of Or22a OSNs, concentration-response
T3 construct: Or22a/OrcoWT in Or22a-expressing olfactory sensory neurons, ex vivo antenna; with Orco
T3 sequence (P81909 1-397): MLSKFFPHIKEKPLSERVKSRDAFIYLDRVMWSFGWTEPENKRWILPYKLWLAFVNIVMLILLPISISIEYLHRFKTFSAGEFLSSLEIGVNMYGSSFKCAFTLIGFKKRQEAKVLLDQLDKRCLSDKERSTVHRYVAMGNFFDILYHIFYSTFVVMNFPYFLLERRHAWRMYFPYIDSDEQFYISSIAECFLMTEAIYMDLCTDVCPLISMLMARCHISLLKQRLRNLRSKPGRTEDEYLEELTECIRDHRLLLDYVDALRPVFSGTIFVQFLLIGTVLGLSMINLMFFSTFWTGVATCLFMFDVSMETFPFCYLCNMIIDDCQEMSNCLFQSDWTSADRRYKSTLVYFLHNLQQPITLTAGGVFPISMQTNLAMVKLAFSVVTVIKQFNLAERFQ
T3 sequence (Q9VNB5 1-486 partner): T2 sequence (Q9VNB5 1-486)

T1 sequence (Q9VNB5 whole entry K339N): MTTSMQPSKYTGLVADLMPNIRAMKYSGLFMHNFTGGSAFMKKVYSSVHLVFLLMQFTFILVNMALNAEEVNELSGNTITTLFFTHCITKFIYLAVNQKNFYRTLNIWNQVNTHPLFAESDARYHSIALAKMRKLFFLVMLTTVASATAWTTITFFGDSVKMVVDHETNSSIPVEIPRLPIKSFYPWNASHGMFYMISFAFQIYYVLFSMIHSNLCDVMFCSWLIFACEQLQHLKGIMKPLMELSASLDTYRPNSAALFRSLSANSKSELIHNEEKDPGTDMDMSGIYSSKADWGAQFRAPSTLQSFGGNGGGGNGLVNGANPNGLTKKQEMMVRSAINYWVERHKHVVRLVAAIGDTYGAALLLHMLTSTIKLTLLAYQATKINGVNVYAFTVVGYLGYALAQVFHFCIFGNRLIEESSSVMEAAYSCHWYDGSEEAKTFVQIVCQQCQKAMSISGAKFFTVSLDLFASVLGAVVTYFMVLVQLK

| SMILES | EC50 (Orco [1]) | EC50 (Orco [2]) | EC50 (Or22a) |
| --- | --- | --- | --- |
| CCc1ccc(NC(=O)CSc2nnc(-c3cccnc3)n2CC)cc1 [VUAA1, 2-(4-Ethyl-5-(pyridin-3-yl)-4H-1,2,4-triazol-3-ylthio)-N-(4-ethylphenyl) acetamide] | 85 µM | 88 µM |  |
| CCCCCC(=O)OCC [ethyl hexanoate] |  |  | 13 µM |
